Results: patent US20250249056A1, “CANCER THERAPIES COMPRISING A NUCLEAR EXPORT INHIBITOR AND AN ONCOLYTIC VIRUS” (priority 2022, published 2025)

System: Colo205 cells
Format: cell-based, human
Conditions: selinexor-treated cytoplasm vs control cytoplasm

O=C(/C=C\n1cnc(-c2cc(C(F)(F)F)cc(C(F)(F)F)c2)n1)NNc1cnccn1 [selinexor]
Differential protein expression, PLEKHS1 (Q5SXH7): 2.039 | Differential protein expression, RSBN1 (Q5VWQ0): 100 | Differential protein expression, ZMYM4 (Q5VZL5): 0.01 | Differential protein expression, RPL7L1 (Q6DKI1): 0.463 | Differential protein expression, DMKN (Q6E0U4): 0.02 | Differential protein expression, NCAPH2 (Q6IBW4): 0.01 | Differential protein expression, LIN54 (Q6MZP7): 0.426 | Differential protein expression, POMZP3 (Q6PJE2): 100 | Differential protein expression, CCDC137 (Q6PK04): 0.426 | Differential protein expression, MPRIP (Q6WCQ1): 0.01 | Differential protein expression, NCCRP1 (Q6ZVX7): 2.342 | Differential protein expression, LPCAT2 (Q7L5N7): 2.194 | Differential protein expression, CXXC5 (Q7LFL8): 0.01 | Differential protein expression, KRT74 (Q7RTS7): 4.935 | Differential protein expression, KRT28 (Q7Z3Y7): 2.439 | Differential protein expression, KRT27 (Q7Z3Y8): 2.607 | Differential protein expression, KRT25 (Q7Z3Z0): 2.607 | Differential protein expression, MYH14 (Q7Z406): 2.01 | Differential protein expression, KRT78 (Q8N1N4): 2.84 | Differential protein expression, PIAS4 (Q8N2W9): 0.01 | Differential protein expression, GPATCH11 (Q8N954): 100 | Differential protein expression, KDM1B (Q8NB78): 0.01 | Differential protein expression, RNF169 (Q8NCN4): 100 | Differential protein expression, PHC3 (Q8NDX5): 100 | Differential protein expression, PPHLN1 (Q8NEY8): 0.01 | Differential protein expression, GDAP1 (Q8TB36): 2.559 | Differential protein expression, CIP2A (Q8TCG1): 0.239 | Differential protein expression, CHD6 (Q8TD26): 0.01 | Differential protein expression, GPT2 (Q8TD30): 0.411 | Differential protein expression, RB1CC1 (Q8TDY2): 100 | Differential protein expression, ZNF384 (Q8TF68): 0.01 | Differential protein expression, U2AF1L4 (Q8WU68): 2.738 | Differential protein expression, TSEN15 (Q8WW01): 0.497 | Differential protein expression, NIPSNAP1 (Q9BPW8): 0.499 | Differential protein expression, SH2D3A (Q9BRG2): 100 | Differential protein expression, WDR83 (Q9BRX9): 100 | Differential protein expression, TPPP3 (Q9BW30): 2.408 | Differential protein expression, LSM14B (Q9BX40): 0.437 | Differential protein expression, TTYH3 (Q9C0H2): 0.47 | Differential protein expression, BRD8 (Q9H0E9): 0.01 | Differential protein expression, WWP1 (Q9H0M0): 2.549 | Differential protein expression, TASP1 (Q9H6P5): 100 | Differential protein expression, RPF2 (Q9H7B2): 2.588 | Differential protein expression, CAAP1 (Q9H8G2): 100 | Differential protein expression, BRD9 (Q9H8M2): 0.01 | Differential protein expression, ING2 (Q9H160): 100 | Differential protein expression, SDCBP2 (Q9H190): 2.885 | Differential protein expression, EPB41L4B (Q9H329): 2.055 | Differential protein expression, FOXP1 (Q9H334): 0.01 | Differential protein expression, SP110 (Q9HB58): 0.01 | Differential protein expression, PATZ1 (Q9HBE1): 100 | Differential protein expression, SPC25 (Q9HBM1): 0.479 | Differential protein expression, AGO4 (Q9HCK5): 2.165 | Differential protein expression, TCF7L1 (Q9HCS4): 5.627 | Differential protein expression, MLXIPL (Q9NP71): 0.379 | Differential protein expression, TCF7L2 (Q9NQB0): 0.01 | Differential protein expression, STRN4 (Q9NRL3): 100 | Differential protein expression, RAD18 (Q9NS91): 100 | Differential protein expression, DIAPH3 (Q9NSV4): 0.233 | Differential protein expression, MBNL3 (Q9NUK0): 2.509 | Differential protein expression, MRGBP (Q9NV56): 100 | Differential protein expression, EXD2 (Q9NVH0): 2.016 | Differential protein expression, ASF1B (Q9NVP2): 0.458 | Differential protein expression, SDHAF2 (Q9NX18): 0.346 | Differential protein expression, EHF (Q9NZC4): 0.01 | Differential protein expression, MACROH2A2 (Q9P0M6): 100 | Differential protein expression, SENP1 (Q9POU3): 0.01 | Differential protein expression, m101L (Q9Q8J9): 2.679 | Differential protein expression, m097R (Q9Q8K3): 100 | Differential protein expression, m094R (Q9Q8K6): 0.01 | Differential protein expression, m089L (Q9Q8L1): 0.01 | Differential protein expression, m048L (Q9Q8P8): 2.287 | Differential protein expression, m043L (Q9Q8Q3): 0.01 | Differential protein expression, m042L (Q9Q8Q4): 0.01 | Differential protein expression, m032R (Q9Q8R4): 100 | Differential protein expression, DNAJB4 (Q9UDY4): 3.313 | Differential protein expression, DAXX (Q9UER7): 100 | Differential protein expression, MLX (Q9UH92): 0.453 | Differential protein expression, ADGRE2 (Q9UHX3): 0.491 | Differential protein expression, RASAL2 (Q9UJF2): 0.01 | Differential protein expression, LEF1 (Q9UJU2): 5.627 | Differential protein expression, ANAPC2 (Q9UJX6): 0.336 | Differential protein expression, GGA2 (Q9UJY4): 0.442 | Differential protein expression, CCNL1 (Q9UK58): 3.386 | Differential protein expression, RALY (Q9UKM9): 2.03 | Differential protein expression, YEATS2 (Q9ULM3): 100 | Differential protein expression, NOB1 (Q9ULX3): 0.407 | Differential protein expression, FZR1 (Q9UM11): 4.964 | Differential protein expression, NOL7 (Q9UMY1): 0.431 | Differential protein expression, LIMCH1 (Q9UPQ0): 0.01 | Differential protein expression, AGAP1 (Q9UPQ3): 2.271 | Differential protein expression, DNM3 (Q9UQ16): 100 | Differential protein expression, JRKL (Q9Y4A0): 0.474 | Differential protein expression, DCAF1 (Q9Y4B6): 0.482 | Differential protein expression, UTP18 (Q9Y5J1): 0.493 | Differential protein expression, ST14 (Q9Y5Y6): 2.934 | Differential protein expression, RBMX2 (Q9Y388): 100 | Differential protein expression, PSAT1 (Q9Y617): 0.469 | Differential protein expression, SLC12A7 (Q9Y666): 0.497 | Differential protein expression, mt6 (Q9YQ03): 0.01 | Differential protein expression, GLE1 (Q53GS7): 0.329 | Differential protein expression, INO80D (Q53TQ3): 100 | Differential protein expression, NAIF1 (Q69Y17): 0.374 | Differential protein expression, H3C13; H3C14; H3C15 (Q71DI3): 3.19 | Differential protein expression, TADA2B (Q86TJ2): 0.246 | Differential protein expression, RPS19BP1 (Q86WX3): 0.426 | Differential protein expression, KRT73 (Q86Y46): 4.935 | Differential protein expression, PBXIP1 (Q96AQ6): 2.168 | Differential protein expression, INTS12 (Q96CB8): 100 | Differential protein expression, LRRC58 (Q96CX6): 3.753 | Differential protein expression, RBMXL1 (Q96E39): 100 | Differential protein expression, MCRS1 (Q96EZ8): 0.01 | Differential protein expression, PERP (Q96FX8): 2.002 | Differential protein expression, LTV1 (Q96GA3): 0.288 | Differential protein expression, SMARCD1 (Q96GM5): 0.376 | Differential protein expression, ZNF668 (Q96K58): 0.01 | Differential protein expression, RNPC3 (Q96LT9): 100 | Differential protein expression, PWWP2A (Q96N64): 0.01 | Differential protein expression, SERPINB12 (Q96P63): 3.145 | Differential protein expression, SLC38A2 (Q96QD8): 0.262 | Differential protein expression, PHF12 (Q96QT6): 100 | Differential protein expression, SMC6 (Q96SB8): 0.01 | Differential protein expression, CDK3 (Q00526): 0.01 | Differential protein expression, ARL11 (Q969Q4): 2.014 | Differential protein expression, U2AF1 (Q01081): 2.205 | Differential protein expression, KRT76 (Q01546): 2.236 | Differential protein expression, SP2 (Q02086): 0.01 | Differential protein expression, PCDH1 (Q08174): 3.649 | Differential protein expression, DSC1 (Q08554): 2.044 | Differential protein expression, CDH17 (Q12864): 5.81 | Differential protein expression, PRDM2 (Q13029): 0.499 | Differential protein expression, KRR1 (Q13601): 2.698 | Differential protein expression, AAMP (Q13685): 0.385 | Differential protein expression, RUNX2 (Q13950): 0.192 | Differential protein expression, CDK13 (Q14004): 2.192 | Differential protein expression, TFDP2 (Q14188): 0.48
